{"source": "patent US9918479B2", "about": "“Control of phytopathogenic microorganisms with Pseudomonas sp. and substances and compositions derived therefrom” (priority 2012, dated 2018)", "data": [{"system": "CL145A (ATCC 55799)", "experiment": "Antibiotic resistance profile, antibiotic discs on Mueller-Hinton agar", "details": "72 hours incubation", "protocol": "One glycerol stock vial of CL145A was equally distributed onto Mueller-Hinton Agar plates (100 μl per plate) and spread on the plate using a sterile cell spreader. Antibiotic discs were then placed onto the plates along with a blank sterile disc. Plates were incubated at 25° C. in the dark for 72 hours.", "values": [{"molecule": "Penicillin", "CL145A resistant or sensitive to the antibiotic (growth inhibited by the antibiotic disc)": "resistant"}, {"molecule": "O=C(N[C@H](CO)[C@H](O)c1ccc([N+](=O)[O-])cc1)C(Cl)Cl", "note": "[Chloramphenicol]", "CL145A resistant or sensitive to the antibiotic (growth inhibited by the antibiotic disc)": "resistant"}, {"molecule": "CCN1CCN(C(=O)N[C@@H](C(=O)N[C@@H]2C(=O)N3[C@@H]2SC(C)(C)[C@@H]3C(=O)O)c2ccccc2)C(=O)C1=O", "note": "[Piperacillin]", "CL145A resistant or sensitive to the antibiotic (growth inhibited by the antibiotic disc)": "sensitive"}, {"molecule": "CO/N=C(\\C(=O)N[C@@H]1C(=O)N2C(C(=O)O)=C(COC(N)=O)CS[C@H]12)c1ccco1", "note": "[Cefuroxime]", "CL145A resistant or sensitive to the antibiotic (growth inhibited by the antibiotic disc)": "resistant"}, {"molecule": "Gentamicin", "CL145A resistant or sensitive to the antibiotic (growth inhibited by the antibiotic disc)": "sensitive"}, {"molecule": "CC1(C)S[C@@H]2[C@H](NC(=O)[C@H](N)c3ccccc3)C(=O)N2[C@H]1C(=O)O", "note": "[Ampicillin]", "CL145A resistant or sensitive to the antibiotic (growth inhibited by the antibiotic disc)": "resistant"}, {"molecule": "[H]/N=C(/N)N[C@H]1[C@H](O)[C@@H](O)[C@H](O[C@@H]2O[C@@H](C)[C@](O)(C=O)[C@H]2O[C@@H]2O[C@@H](CO)[C@H](O)[C@@H](O)[C@@H]2NC)[C@@H](N/C(N)=N\\[H])[C@@H]1O", "note": "[Streptomycin]", "CL145A resistant or sensitive to the antibiotic (growth inhibited by the antibiotic disc)": "resistant"}, {"molecule": "CC[C@H]1OC(=O)[C@H](C)[C@@H](O[C@H]2C[C@@](C)(OC)[C@@H](O)[C@H](C)O2)[C@H](C)[C@@H](O[C@@H]2O[C@H](C)C[C@H](N(C)C)[C@H]2O)[C@](C)(O)C[C@@H](C)C(=O)[C@H](C)[C@@H](O)[C@]1(C)O", "note": "[Erythromycin]", "CL145A resistant or sensitive to the antibiotic (growth inhibited by the antibiotic disc)": "resistant"}]}]}
